Source: patent US20110003757A1, “PHARMACEUTICAL COMPOSITIONS FOR TREATING FATTY LIVER DISEASE” (ASTELLAS PHARMA INC., priority 2008, published 2011)

Tests used:
KK-A^y mice = experiment: Liver triglyceride content in nonalcoholic simple fatty liver model (KK-A^y mice); assay type: in vivo; settings: for Liver triglyceride content: mean±standard error; for Effect on liver triglyceride content (in words): versus vehicle
Experimental: KK-A^y mice (female, purchased from CLEA Japan, Inc.) were used. The mice were fed with CMF (for special breeding, purchased from Oriental Yeast Co., Ltd., Japan) ad libitum. At 14 weeks of age, they were measured for their body weight, blood glucose levels, plasma insulin levels, plasma triglyceride levels and plasma alanine aminotransferase (ALT), and then divided into two groups such that these items were equal between the groups (8 animals per group). The first group was administered with vehicle (0.5% methylcellulose) at a dose of 10 mL/kg, and the second group was administered with a choline salt of (1S)-1,5-anhydro-1-[5-(azulen-2-ylmethyl)-2-hydroxyphenyl]-D-glucitol (i.e., a choline salt of Compound A) at a dose of 3 mg/kg (calculated as Compound A), each being administered orally once a day for 2 weeks. On the day following the final administration, the liver was collected from each mouse under ether anesthesia, frozen in liquid nitrogen and then stored at −80° C.
Liver triglyceride content was measured in the following manner.
1. A portion (50 to 150 mg) of each liver frozen and stored at −80° C. was taken to an Assist tube. 2. After addition of methanol (2 mL), the liver sample was homogenized with a POLYTRON (KINEMATICA). 3. To the homogenate, chloroform (4 mL) was added and vigorously stirred at room temperature for 10 minutes. 4. Milli-Q water (1 mL) was further added and vigorously stirred. 5. The sample was centrifuged in a low speed centrifuge (Hitachi, Ltd., Japan) (2,500 rpm, 5 min, room temperature). 6. A portion of the lower layer (total volume: 4.5 mL) was taken to an Eppendorf tube and evaporated in a centrifugal evaporator (Sakuma Seisakusho, Japan) to remove the solvent. 7. The residue in the Eppendorf tube was dissolved again by addition of ethanol (10 μL). 8. Triglyceride E-Test Wako reagent (1 mL, Wako Pure Chemical Industries, Ltd., Japan) was added to the resulting solution, and triglycerides were quantified. 9. From the result obtained above, the triglyceride content per g of liver was calculated for each sample. The data were expressed as mean±standard error.
(§1) The test was conducted in the same manner as shown in Example 1, except that this test was conducted with 3 groups of 8 animals, and the first group was administered with vehicle (0.5% methylcellulose) at a dose of 10 mL/kg, the second group was administered with a co-crystal (1:1 molar ratio) of (1S)-1,5-anhydro-1-[3-(1-benzothiophen-2-ylmethyl)-4-fluorophenyl]-D-glucitol (Compound B) and L-proline at a dose of 3 mg/kg (calculated as Compound B), and the third group was administered with a control compound, 2-(4-methoxybenzyl)phenyl 6-O-ethoxycarbonyl-β-D-glucopyranoside (hereinafter also referred to as Compound X, whose structural formula is shown below) disclosed in Patent Document 1 (supra) at a dose of 36 mg/kg, each being administered orally once a day for 2 weeks. Then, the liver triglyceride content was measured for each group in the same manner as shown in Example 1.
as §1, with “Compound B” for “(1S)-1,5-anhydro-1-[3-(1-benzothiophen-2-ylmethyl)-4-fluorophenyl]-D-glucitol (Compound B)”, “T-1095 disclosed in Patent Document 2 (supra), i.e., 3-(benzo[b]furan-5-yl)-2′,6′-dihydroxy-4′-methylpropiophenone 2′-O-(6-O-methoxycarbonyl)-β-D-glucopyranoside” for “2-(4-methoxybenzyl)phenyl 6-O-ethoxycarbonyl-β-D-glucopyranoside”, “Y,” for “X,”, “below)” for “below) disclosed in Patent Document 1 (supra)”, “34” for “36”
The test was conducted in the same manner as shown in Example 1. […]

db/db mice = settings: disclosed in Patent Document 2; cited from earlier work
MCD diet-fed Wistar rats = experiment: Nonalcoholic steatohepatitis model, MCD diet-fed rats: liver histopathology scores; assay type: in vivo; settings: co-crystal of Compound B and L-proline 3 mg/kg orally once a day for 16 weeks, five-point scale 0-4, versus MCD diet vehicle group
Experimental: This test was conducted by reference to a document (J. Hepatol., 2003, 39, 756-764). Wistar rats (male, purchased from Charles River Japan, Inc.) were used. The rats were fed with MCD diet (methionine/choline-deficient diet, MP Biochemicals) or normal control diet (methionine/choline control diet, MP Biochemicals) ad libitum. At 9 weeks of age, they were measured for their body weight and divided into groups of equal body weight, followed by initiation of the test (10 animals per group). The first group was fed with normal control diet and administered with vehicle (0.5% methylcellulose) at a dose of 5 mL/kg. The second and third groups were fed with MCD diet, and the second group was administered with vehicle (0.5% methylcellulose) at a dose of 5 mL/kg, while the third group was administered with a co-crystal (1:1 molar ratio) of Compound B and L-proline at a dose of 3 mg/kg (calculated as Compound B). Each drug was administered orally once a day for 16 weeks. On the day following the final administration, the liver was collected from each rat under ether anesthesia and a portion of the liver was fixed in 10% neutral buffered formalin. […]

[1] = tested on: CDAA diet-fed Wistar rats; experiment: Nonalcoholic steatohepatitis model, CDAA diet-fed rats: hepatic fibrosis score; assay type: in vivo; settings: Example 5, FIG. 3; co-crystal of Compound B and L-proline 3 mg/kg orally once a day for 5 weeks; five-point scale 0-4; versus CDAA diet vehicle group
Experimental: This test was conducted by reference to a document (Biochem Biophys Res Commun., 2004, 315(1), 187-195). Wistar rats (male, purchased from Charles River Japan, Inc.) were used. The rats were fed with CDAA diet (choline-deficient L-amino acid-defined diet (Choline Deficient and Iron Supplemented L-Amino Acid Defined Rat Diet, Dyets)) or normal control diet (Choline and Iron Supplemented L-Amino Acid Defined Rat Diet, Dyets) ad libitum. At 9 weeks of age, they were measured for their body weight and divided into groups of equal body weight, followed by initiation of the test (10 animals per group). […] The second and third groups were fed with CDAA diet, and the second group was administered with vehicle (0.5% methylcellulose) at a dose of 5 mL/kg, while the third group was administered with a co-crystal (1:1 molar ratio) of Compound B and L-proline at a dose of 3 mg/kg (calculated as Compound B). […] After a portion of the liver was fixed in 10% neutral buffered formalin, paraffin sections (3 μm) were prepared in a standard manner and subjected to van Gieson staining Fibrosis was evaluated by reference to the Brunt classification (Clinical Practice Guidelines for NASH/NAFLD, edited by the Japan Society of Hepatology, 2006), based on a five-point scale of 0, 1, 2, 3 and 4 (see Table 4).

SGLT = settings: disclosed in Patent Documents 3, 5 and 6; cited from earlier work

## COC(=O)OC[C@H]1O[C@@H](Oc2cc(C)cc(O)c2C(=O)CCc2ccc3occc3c2)[C@H](O)[C@@H](O)[C@@H]1O [Compound Y, 3-(benzo[b]furan-5-yl)-2′,6′-dihydroxy-4′-methylpropiophenone 2′-O-(6-O-methoxycarbonyl)-β-D-glucopyranoside, reference compound]
KK-A^y mice; Example 3, 34 mg/kg orally once a day for 2 weeks, vehicle 59.7 ± 6.2
  Liver triglyceride content: 59.7 ± 8.9 mg/g liver
db/db mice
  Blood triglyceride levels: reduced blood triglyceride levels

## OC[C@H]1O[C@@H](c2ccc(F)c(Cc3cc4ccccc4s3)c2)[C@H](O)[C@@H](O)[C@@H]1O [Compound B, (1S)-1,5-anhydro-1-[3-(1-benzothiophen-2-ylmethyl)-4-fluorophenyl]-D-glucitol]
KK-A^y mice; Example 2, 3 mg/kg orally once a day for 2 weeks
  Effect on liver triglyceride content (in words): significantly improved
KK-A^y mice; Example 2, co-crystal of Compound B and L-proline, 3 mg/kg (calculated as Compound B) orally once a day for 2 weeks, vehicle 52.8 ± 4.9
  Liver triglyceride content: 34.8 ± 1.9 mg/g liver
KK-A^y mice; Example 3, 3 mg/kg orally once a day for 2 weeks
  Effect on liver triglyceride content (in words): significantly improved
KK-A^y mice; Example 3, co-crystal of Compound B and L-proline, 3 mg/kg (calculated as Compound B) orally once a day for 2 weeks, vehicle 59.7 ± 6.2
  Liver triglyceride content: 41.2 ± 5.1 mg/g liver
MCD diet-fed Wistar rats; Example 4, FIG. 1
  Pathological score of inflammatory cell infiltration: significantly improved
MCD diet-fed Wistar rats; Example 4, FIG. 2
  Pathological score of hepatic fibrosis: significantly improved
[1]
  Pathological score of hepatic fibrosis: significantly improved
SGLT
  SGLT inhibitory activity: shows SGLT inhibitory activity

## CCOc1ccc(Cc2cc([C@@H]3O[C@H](CO)[C@@H](O)[C@H](O)[C@H]3O)ccc2Cl)cc1 [Compound C, (1S)-1,5-anhydro-1-[4-chloro-3-(4-ethoxybenzyl)phenyl]-D-glucitol]
KK-A^y mice; Example 6, 3 mg/kg orally once a day for 2 weeks
  Effect on liver triglyceride content (in words): significantly improved
KK-A^y mice; Example 6, 3 mg/kg orally once a day for 2 weeks, vehicle 60.2 ± 7.1
  Liver triglyceride content: 28.6 ± 3.9 mg/g liver

## CCOC(=O)OC[C@H]1O[C@@H](Oc2ccccc2Cc2ccc(OC)cc2)[C@H](O)[C@@H](O)[C@@H]1O [Compound X, 2-(4-methoxybenzyl)phenyl 6-O-ethoxycarbonyl-β-D-glucopyranoside, reference compound]
KK-A^y mice; Example 2, 3 mg/kg orally once a day for 2 weeks, vehicle 52.8 ± 4.9
  Liver triglyceride content: 57.9 ± 4.5 mg/g liver
KK-A^y mice; Example 2, 36 mg/kg orally once a day for 2 weeks
  Effect on liver triglyceride content (in words): no significant effect
KK-A^y mice; Example 3, 34 mg/kg orally once a day for 2 weeks
  Effect on liver triglyceride content (in words): no significant effect

## OC[C@H]1O[C@@H](c2cc(Cc3cc4cccccc-4c3)ccc2O)[C@H](O)[C@@H](O)[C@@H]1O [Compound A, (1S)-1,5-anhydro-1-[5-(azulen-2-ylmethyl)-2-hydroxyphenyl]-D-glucitol]
KK-A^y mice; Example 1, 3 mg/kg orally once a day for 2 weeks
  Effect on liver triglyceride content (in words): significantly improved
KK-A^y mice; Example 1, choline salt of Compound A, 3 mg/kg (calculated as Compound A) orally once a day for 2 weeks, vehicle 60.0 ± 8.4
  Liver triglyceride content: 30.7 ± 5.4 mg/g liver
SGLT
  SGLT inhibitory activity: shows SGLT inhibitory activity
